Data from PubChem BioAssay (NCI).
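GI50 marks 50% less growth. TGI marks complete inhibition of growth.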

Key:
Experiment in all cases: DTP human tumour cell line panel, 384-well format
RPMI-8226 leukemia = tested on: RPMI-8226 leukemia
SK-MEL-28 melanoma = tested on: SK-MEL-28 melanoma
MOLT-4 leukemia = tested on: MOLT-4 leukemia
NCI-H322M lung = tested on: NCI-H322M lung
MDA-MB-468 breast = tested on: MDA-MB-468 breast
MCF7 breast = tested on: MCF7 breast
MDA-MB-231 breast = tested on: MDA-MB-231 breast
EKVX NSCLC = tested on: EKVX NSCLC
OVCAR-5 ovarian = tested on: OVCAR-5 ovarian
MALME-3M melanoma = tested on: MALME-3M melanoma
ACHN renal = tested on: ACHN renal
OVCAR-4 ovarian = tested on: OVCAR-4 ovarian
CCRF-CEM leukemia = tested on: CCRF-CEM leukemia
SNB-75 CNS = tested on: SNB-75 CNS
U251 glioblastoma = tested on: U251 glioblastoma
SF-539 CNS = tested on: SF-539 CNS
UO-31 renal = tested on: UO-31 renal
OVCAR-3 ovarian = tested on: OVCAR-3 ovarian
T-47D breast = tested on: T-47D breast
NCI-H23 lung = tested on: NCI-H23 lung
NCI-H460 NSCLC = tested on: NCI-H460 NSCLC
HCT-116 colon = tested on: HCT-116 colon
NCI-H522 lung = tested on: NCI-H522 lung
NCI/ADR-RES ovarian = tested on: NCI/ADR-RES ovarian
SNB-19 CNS = tested on: SNB-19 CNS
SK-OV-3 ovarian = tested on: SK-OV-3 ovarian
HS 578T breast = tested on: HS 578T breast
KM12 colon = tested on: KM12 colon
HOP-62 NSCLC = tested on: HOP-62 NSCLC
SK-MEL-5 melanoma = tested on: SK-MEL-5 melanoma
CAKI-1 renal = tested on: CAKI-1 renal
PC-3 prostate = tested on: PC-3 prostate
A498 renal = tested on: A498 renal
COLO 205 colon = tested on: COLO 205 colon
UACC-257 melanoma = tested on: UACC-257 melanoma
NCI-H226 lung = tested on: NCI-H226 lung
BT-549 breast = tested on: BT-549 breast
HOP-92 NSCLC = tested on: HOP-92 NSCLC
HCC-2998 colon = tested on: HCC-2998 colon
SW-620 colon = tested on: SW-620 colon
OVCAR-8 ovarian = tested on: OVCAR-8 ovarian
K-562 leukemia = tested on: K-562 leukemia
SF-268 CNS = tested on: SF-268 CNS
LOX IMVI melanoma = tested on: LOX IMVI melanoma
IGROV1 ovarian = tested on: IGROV1 ovarian
UACC-62 melanoma = tested on: UACC-62 melanoma
HL-60(TB) leukemia = tested on: HL-60(TB) leukemia

Which GI50 (RPMI-8226 leukemia) does the source give for `COc1cc(C)[nH]c(=O)c1CNC(=O)c1c(C)n([C@H](C)C2CCN(CC(F)(F)F)CC2)c2ccccc12` here?
The GI50 was 2.4 µM.

What about the TGI (RPMI-8226 leukemia) of the same compound?
Its TGI is 10.3 µM.

And the GI50 (SK-MEL-28 melanoma)?
The GI50 was 98.2 µM.

What about the TGI (SK-MEL-28 melanoma) of the same compound?
The TGI was > 100 µM.

And the GI50 (MOLT-4 leukemia)?
Its GI50 is 16.5 µM.

And the TGI (MOLT-4 leukemia)?
Its TGI is 31.3 µM.

What about the GI50 (NCI-H322M lung) of the same compound?
The GI50 was > 83.6 µM.

What about the TGI (NCI-H322M lung) of the same compound?
The TGI was > 100 µM.

What about the GI50 (MDA-MB-468 breast) of the same compound?
Its GI50 is 21.4 µM.

What about the TGI (MDA-MB-468 breast) of the same compound?
Its TGI is 51.3 µM.

What about the GI50 (MCF7 breast) of the same compound?
The GI50 was 27.3 µM.

What about the TGI (MCF7 breast) of the same compound?
Its TGI is > 100 µM.

And the GI50 (MDA-MB-231 breast)?
Its GI50 is 67.5 µM.

And the TGI (MDA-MB-231 breast)?
Its TGI is > 100 µM.

What about the GI50 (EKVX NSCLC) of the same compound?
Its GI50 is 67.7 µM.

And the TGI (EKVX NSCLC)?
The TGI was > 100 µM.

What about the GI50 (OVCAR-5 ovarian) of the same compound?
The GI50 was > 100 µM.

What about the TGI (OVCAR-5 ovarian) of the same compound?
Its TGI is > 100 µM.

What about the GI50 (MALME-3M melanoma) of the same compound?
Its GI50 is > 66.1 µM.

What about the TGI (MALME-3M melanoma) of the same compound?
The TGI was > 100 µM.

And the GI50 (ACHN renal)?
Its GI50 is 45.4 µM.

What about the TGI (ACHN renal) of the same compound?
Its TGI is > 100 µM.

What about the GI50 (OVCAR-4 ovarian) of the same compound?
The GI50 was 45.5 µM.

And the TGI (OVCAR-4 ovarian)?
Its TGI is > 100 µM.

What about the GI50 (CCRF-CEM leukemia) of the same compound?
Its GI50 is 21.6 µM.

And the TGI (CCRF-CEM leukemia)?
Its TGI is 43.9 µM.

And the GI50 (SNB-75 CNS)?
The GI50 was 42 µM.

And the TGI (SNB-75 CNS)?
The TGI was > 100 µM.

And the GI50 (U251 glioblastoma)?
The GI50 was 98 µM.

What about the TGI (U251 glioblastoma) of the same compound?
Its TGI is > 100 µM.

And the GI50 (SF-539 CNS)?
The GI50 was > 100 µM.

And the TGI (SF-539 CNS)?
The TGI was > 100 µM.

And the GI50 (UO-31 renal)?
Its GI50 is 90.4 µM.

What about the TGI (UO-31 renal) of the same compound?
Its TGI is > 100 µM.

And the GI50 (OVCAR-3 ovarian)?
Its GI50 is 34.2 µM.

What about the TGI (OVCAR-3 ovarian) of the same compound?
The TGI was > 96.5 µM.

And the GI50 (T-47D breast)?
The GI50 was 29.7 µM.

And the TGI (T-47D breast)?
Its TGI is > 94.1 µM.

And the GI50 (NCI-H23 lung)?
The GI50 was > 100 µM.

And the TGI (NCI-H23 lung)?
The TGI was > 100 µM.

What about the GI50 (NCI-H460 NSCLC) of the same compound?
Its GI50 is 54.7 µM.

What about the TGI (NCI-H460 NSCLC) of the same compound?
The TGI was > 100 µM.

And the GI50 (HCT-116 colon)?
Its GI50 is 66.8 µM.

What about the TGI (HCT-116 colon) of the same compound?
Its TGI is > 100 µM.

What about the GI50 (NCI-H522 lung) of the same compound?
The GI50 was 65.2 µM.

And the TGI (NCI-H522 lung)?
The TGI was > 100 µM.

What about the GI50 (NCI/ADR-RES ovarian) of the same compound?
Its GI50 is > 100 µM.

What about the TGI (NCI/ADR-RES ovarian) of the same compound?
Its TGI is > 100 µM.

And the GI50 (SNB-19 CNS)?
The GI50 was > 100 µM.

And the TGI (SNB-19 CNS)?
The TGI was > 100 µM.

And the GI50 (SK-OV-3 ovarian)?
Its GI50 is 56.6 µM.

And the TGI (SK-OV-3 ovarian)?
Its TGI is > 100 µM.

What about the GI50 (HS 578T breast) of the same compound?
The GI50 was 40.1 µM.

And the TGI (HS 578T breast)?
The TGI was > 100 µM.

What about the GI50 (KM12 colon) of the same compound?
The GI50 was 53.8 µM.

What about the TGI (KM12 colon) of the same compound?
Its TGI is > 100 µM.

What about the GI50 (HOP-62 NSCLC) of the same compound?
Its GI50 is 46.7 µM.

And the TGI (HOP-62 NSCLC)?
Its TGI is > 100 µM.

What about the GI50 (SK-MEL-5 melanoma) of the same compound?
Its GI50 is 33.5 µM.

What about the TGI (SK-MEL-5 melanoma) of the same compound?
Its TGI is > 65.5 µM.

And the GI50 (CAKI-1 renal)?
Its GI50 is 63.5 µM.

What about the TGI (CAKI-1 renal) of the same compound?
Its TGI is > 100 µM.

And the GI50 (PC-3 prostate)?
The GI50 was 55.5 µM.

And the TGI (PC-3 prostate)?
The TGI was > 100 µM.

And the GI50 (A498 renal)?
Its GI50 is 43.1 µM.

And the TGI (A498 renal)?
Its TGI is > 100 µM.

What about the GI50 (COLO 205 colon) of the same compound?
Its GI50 is 97.3 µM.

And the TGI (COLO 205 colon)?
The TGI was > 100 µM.

And the GI50 (UACC-257 melanoma)?
The GI50 was 50.3 µM.

And the TGI (UACC-257 melanoma)?
Its TGI is > 100 µM.

And the GI50 (NCI-H226 lung)?
Its GI50 is > 51.9 µM.

And the TGI (NCI-H226 lung)?
Its TGI is 96.9 µM.

And the GI50 (BT-549 breast)?
Its GI50 is 27.4 µM.

What about the TGI (BT-549 breast) of the same compound?
The TGI was > 72.6 µM.

And the GI50 (HOP-92 NSCLC)?
Its GI50 is 45.7 µM.

And the TGI (HOP-92 NSCLC)?
The TGI was > 100 µM.

And the GI50 (HCC-2998 colon)?
Its GI50 is 65.3 µM.

What about the TGI (HCC-2998 colon) of the same compound?
The TGI was > 100 µM.

And the GI50 (SW-620 colon)?
Its GI50 is 52 µM.

What about the TGI (SW-620 colon) of the same compound?
Its TGI is > 91.9 µM.

What about the GI50 (OVCAR-8 ovarian) of the same compound?
The GI50 was > 96 µM.

And the TGI (OVCAR-8 ovarian)?
The TGI was > 100 µM.

What about the GI50 (K-562 leukemia) of the same compound?
The GI50 was 36.3 µM.

And the TGI (K-562 leukemia)?
The TGI was > 100 µM.

And the GI50 (SF-268 CNS)?
Its GI50 is 39.6 µM.

And the TGI (SF-268 CNS)?
Its TGI is > 68.2 µM.

And the GI50 (LOX IMVI melanoma)?
The GI50 was 31.7 µM.

What about the TGI (LOX IMVI melanoma) of the same compound?
The TGI was 94.1 µM.

What about the GI50 (IGROV1 ovarian) of the same compound?
The GI50 was 44.1 µM.

What about the TGI (IGROV1 ovarian) of the same compound?
Its TGI is > 100 µM.

What about the GI50 (UACC-62 melanoma) of the same compound?
Its GI50 is 37.9 µM.

What about the TGI (UACC-62 melanoma) of the same compound?
The TGI was > 100 µM.

And the GI50 (HL-60(TB) leukemia)?
Its GI50 is 33.4 µM.

What about the TGI (HL-60(TB) leukemia) of the same compound?
Its TGI is > 61.6 µM.
